Structures are written as SMILES. Structures can show the parent of a compound that is named as a salt.

In the first assay the test system is Human mast cells (CHMC). Briefly: LD Tryptase release assay in CHMC (mast cell activation induced by FcγR cross-linking). Type of assay: cell-based. The conditions noted are these: Homo sapiens, Mast cell, anti-IgG stimulation, activity of tryptase released upon degranulation. Summed up: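 Mast cells derived from CD38-negative progenitors were preincubated 1 h at 37 °C with compound in HEPES-buffered saline (pH 7.4, 0.1% BSA, compound diluted in buffer with 2% MeOH/1% DMSO). Cells were then stimulated 60 min with anti-human IgG (final 1 μg/mL). Released tryptase was measured on Z-Ala-Lys-Arg-AMC (30 min, room temperature, 355/460 nm) to give the IC50.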
Usually IC50 stands for the concentration that gives 50% inhibition. Consider `C[C@H]1CN(c2ccc(Nc3ncc(F)c(Nc4ccc5c(n4)NC(=O)C(C)(C)O5)n3)cn2)CCO1` [Compound 94, N4-(2,2-dimethyl-3,4-dihydro-3-oxo-2H-pyrido[3,2-b][1,4]oxazin-6-yl)-5-fluoro-N2-[6-((2S)-2-methylmorpholino)pyridin-3-yl]-2,4-pyrimidinediamine], for which the IC50 was in the range of 100 to 500 nM.
Still for that read-out and setting: under `C[C@@H]1CN(c2ccc(Nc3ncc(F)c(Nc4ccc5c(n4)NC(=O)CO5)n3)cn2)C[C@H](C)O1` [Compound 95, rac-Cis-N4-(3,4-dihydro-3-oxo-2H-pyrido[3,2-b][1,4]oxazin-6-yl)-N2-[6-(2,6-dimethylmorpholino)pyridin-3-yl]-5-fluoro-2,4-pyrimidinediamine] stands 100 to 500 nM; under `C[C@@H]1CN(c2ccc(Nc3ncc(F)c(Nc4ccc5c(n4)NC(=O)C(C)(C)O5)n3)cn2)C[C@H](C)O1` [Compound 96, rac-Cis-N4-(2,2-dimethyl-3,4-dihydro-3-oxo-2H-pyrido[3,2-b][1,4]oxazin-6-yl)-N2-[6-(2,6-dimethylmorpholino)pyridin-3-yl]-5-fluoro-2,4-pyrimidinediamine], 100 to 500 nM; under `COCCN(C)c1ccc(Nc2ncc(F)c(Nc3ccc4c(n3)NC(=O)CO4)n2)cn1` [Compound 98], 500 to 1000 nM.
As for `COCCN(C)c1ccc(Nc2ncc(F)c(Nc3ccc4c(n3)NC(=O)C(C)(C)O4)n2)cn1` [Compound 99], the 50% inhibitory concentration (IC50) fell in the range of 100 to 500 nM.
As for `CCOC[C@@H]1CN(c2ccc(Nc3ncc(F)c(Nc4ccc5c(n4)NC(=O)CO5)n3)cn2)CCO1` [Compound 100, N4-(3,4-dihydro-3-oxo-2H-pyrido[3,2-b][1,4]oxazin-6-yl)-N2-[6-(((2S)-2-ethoxymethyl)morpholino)pyridin-3-yl]-5-fluoro-2,4-pyrimidinediamine], the half-maximal inhibitory concentration (IC50) was in the range of 100 to 500 nM.
Same read-out and setting: under `CCOC[C@@H]1CN(c2ccc(Nc3ncc(F)c(Nc4ccc5c(n4)NC(=O)C(C)(C)O5)n3)cn2)CCO1` [Compound 101, N4-(2,2-dimethyl-3,4-dihydro-3-oxo-2H-pyrido[3,2-b][1,4]oxazin-6-yl)-N2-[6-(((2S)-2-ethoxymethyl)morpholino)pyridin-3-yl]-5-fluoro-2,4-pyrimidinediamine] stands 100 to 500 nM; under `CCOC[C@H]1CN(c2ccc(Nc3ncc(F)c(Nc4ccc5c(n4)NC(=O)CO5)n3)cn2)CCO1` [Compound 102, N4-(3,4-dihydro-3-oxo-2H-pyrido[3,2-b][1,4]oxazin-6-yl)-N2-[6-(((2R)-2-ethoxymethyl)morpholino)pyridin-3-yl]-5-fluoro-2,4-pyrimidinediamine], 100 to 500 nM.
In the case of `CCOC[C@H]1CN(c2ccc(Nc3ncc(F)c(Nc4ccc5c(n4)NC(=O)C(C)(C)O5)n3)cn2)CCO1` [Compound 103, N4-(2,2-dimethyl-3,4-dihydro-3-oxo-2H-pyrido[3,2-b][1,4]oxazin-6-yl)-N2-[6-(((2R)-2-ethoxymethyl)morpholino)pyridin-3-yl]-5-fluoro-2,4-pyrimidinediamine], the concentration for half-maximal inhibition (IC50) fell in the range of 100 to 500 nM.
The same measure, in the same setting: the same measure for `[2H]C1([2H])OC([2H])([2H])C([2H])([2H])N(c2ccc(Nc3ncc(F)c(Nc4ccc5c(n4)NC(=O)CO5)n3)cn2)C1([2H])[2H]` [Compound 106, N4-(3,4-dihydro-3-oxo-2H-pyrido[3,2-b][1,4]oxazin-6-yl)-5-fluoro-N2-[6-(2,2,3,3,5,5,6,6-d8-morpholino)pyridin-3-yl]-2,4-pyrimidinediamine]: below 100 nM.

Still in this assay, the particulars now being: anti-IgG stimulation, activity of tryptase released upon degranulation.
As for `C[C@H]1COCCN1c1ccc(Nc2ncc(F)c(Nc3ccc4c(n3)N(COP(=O)(O)O)C(=O)C(C)(C)O4)n2)cn1` [Compound 97, N4-(2,2-dimethyl-3,4-dihydro-4-[(dihydrogenphosphonoxy)methyl]-3-oxo-2H-pyrido[3,2-b][1,4]oxazin-6-yl)-5-fluoro-N2-[6-((3S)-3-methylmorpholino)pyridin-3-yl]-2,4-pyrimidinediamine disodium salt], the IC50 lay within 1000 to 100000 nM.

(Values after patent publication US8618095B2 (Rigel Pharmaceuticals, Inc., priority 2010, dated 2013).)
